According to the supplement of paper PMC3770661:
Where a name gives a salt, the structure may show the parent alone. ± gives the uncertainty stated by the source.

Tested on: HepG2 (L1.3 5'UTR promoter firefly luciferase reporter)
Assay: L1 promoter activity (FLuc/RLuc) relative to DMSO vehicle control (% of control); higher = stronger L1 promoter activation
Protocol: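 HepG2 cells in 96-well plates were cotransfected with pGL4.11-L1.3 5'UTR (firefly luciferase driven by the human L1.3 5'UTR promoter) and pGL4.74 (HSV-TK Renilla luciferase internal control), then treated with compound for 6 or 24 h. FLuc/RLuc ratio was normalised to the DMSO vehicle control (% of control); concentrations where RLuc fell below 50% of control were excluded (N.D.). Mean of at least two independent experiments in duplicate or quadruplicate.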

[1] = concentration (uM unless unit written): 5, treatment time: 6 h
[2] = concentration (uM unless unit written): 50, treatment time: 6 h
[3] = concentration (uM unless unit written): 50, treatment time: 24 h
[4] = concentration (uM unless unit written): 100, treatment time: 6 h
[5] = concentration (uM unless unit written): 100, treatment time: 24 h
[6] = concentration (uM unless unit written): 500, treatment time: 6 h
[7] = concentration (uM unless unit written): 500, treatment time: 24 h
[8] = concentration (uM unless unit written): 125, treatment time: 6 h
[9] = concentration (uM unless unit written): 125, treatment time: 24 h
[10] = concentration (uM unless unit written): 250, treatment time: 6 h
[11] = concentration (uM unless unit written): 250, treatment time: 24 h
[12] = concentration (uM unless unit written): 10, treatment time: 6 h
[13] = concentration (uM unless unit written): 10, treatment time: 24 h

Compound: CNc1ccc2oc(C[C@H]3O[C@@]4(CC[C@H]3C)O[C@H]([C@H](C)C(=O)c3ccc[nH]3)[C@H](C)C[C@H]4C)nc2c1C(=O)O
- L1 promoter activity (concentration (uM unless unit written): 0.75, treatment time: 6 h): 57.4 ± 16
- L1 promoter activity (concentration (uM unless unit written): 0.75, treatment time: 24 h): 57.4 ± 4.2
- L1 promoter activity (concentration (uM unless unit written): 1.5, treatment time: 6 h): 52.4 ± 8.8
- L1 promoter activity [1]: 54.4 ± 4.2

Compound: Cc1cccc(Nc2cc(Cl)nc(SCC(=O)O)n2)c1C
- L1 promoter activity (concentration (uM unless unit written): 200, treatment time: 6 h): 98.9 ± 11
- L1 promoter activity (concentration (uM unless unit written): 200, treatment time: 24 h): 82.7 ± 5.2

Compound: CN(C)CCC(c1ccc(Cl)cc1)c1ccccn1 (racemic) [(±)-Chlorpheniramine maleate salt]
- L1 promoter activity [2]: 91.1 ± 9.6
- L1 promoter activity [3]: 96.2 ± 19
- L1 promoter activity [4]: 101 ± 9.2
- L1 promoter activity [5]: 86.4 ± 8.2
- L1 promoter activity [6]: 84 ± 3.3

Compound: CN1CC=C(c2ccccc2)CC1 [1-Methyl-4-phenyl-1,2,3,6-tetrahydropyridine]
- L1 promoter activity [6]: 115 ± 11
- L1 promoter activity [7]: 121 ± 19

Compound: COC1=C(OC)C(=O)c2ccccc2C1=O [2,3-Dimethoxy-1,4-naphthoquinone]
- L1 promoter activity (concentration (uM unless unit written): 15, treatment time: 6 h): 119 ± 8.7
- L1 promoter activity (concentration (uM unless unit written): 30, treatment time: 6 h): 119 ± 8.1

Compound: O=C(O)CC[N+](=O)[O-] [3-Nitropropionic acid]
- L1 promoter activity [8]: 114 ± 5
- L1 promoter activity [9]: 95.1 ± 5.4
- L1 promoter activity [10]: 112 ± 14
- L1 promoter activity [11]: 94.2 ± 18
- L1 promoter activity [6]: 119 ± 14
- L1 promoter activity [7]: 80.7 ± 11

Compound: C=CCCC(=O)O [4-Pentenoic acid]
- L1 promoter activity (concentration (uM unless unit written): 25000, treatment time: 6 h): 102 ± 2.3
- L1 promoter activity (concentration (uM unless unit written): 25000, treatment time: 24 h): 28.2 ± 0.94
- L1 promoter activity (concentration (uM unless unit written): 50000, treatment time: 6 h): 99.1 ± 4.5
- L1 promoter activity (concentration (uM unless unit written): 50000, treatment time: 24 h): 22.5 ± 1.7
- L1 promoter activity (concentration (uM unless unit written): 100000, treatment time: 6 h): 101 ± 26
- L1 promoter activity (concentration (uM unless unit written): 100000, treatment time: 24 h): 25.8 ± 2.7

Compound: Nc1nc(=S)c2[nH]cnc2[nH]1 [6-Thioguanine]
- L1 promoter activity (concentration (uM unless unit written): 2.5, treatment time: 6 h): 126 ± 16
- L1 promoter activity (concentration (uM unless unit written): 2.5, treatment time: 24 h): 98.6 ± 12
- L1 promoter activity [1]: 108 ± 17
- L1 promoter activity (concentration (uM unless unit written): 5, treatment time: 24 h): 102 ± 14
- L1 promoter activity [12]: 104 ± 4.2
- L1 promoter activity [13]: 97.3 ± 11

Compound: C[C@]12CC[C@@H]3c4ccc(O)cc4CC[C@H]3[C@@H]1CC[C@@H]2O [17β-Estradiol]
- L1 promoter activity (concentration (uM unless unit written): 25, treatment time: 6 h): 101 ± 6.5
- L1 promoter activity (concentration (uM unless unit written): 25, treatment time: 24 h): 104 ± 11
- L1 promoter activity [2]: 119 ± 8.4
- L1 promoter activity [3]: 103 ± 16
- L1 promoter activity [4]: 107 ± 7.5
- L1 promoter activity [5]: 102 ± 15

Compound: COc1ccc2c(c1OC)C(=O)OC2C1c2c(cc3c(c2OC)OCO3)CCN1C [(S,R)-Noscapine]
- L1 promoter activity [8]: 85.3 ± 11
- L1 promoter activity [9]: 40.8 ± 2.2
- L1 promoter activity [10]: 80.1 ± 20
- L1 promoter activity [11]: 33.3 ± 5.6
- L1 promoter activity [6]: 68.2 ± 9.4
- L1 promoter activity [7]: 30.4 ± 4.2

Compound: CC(=O)Nc1ccc(O)cc1 [Acetaminophen]
- L1 promoter activity (concentration (uM unless unit written): 10000, treatment time: 6 h): 116 ± 12
- L1 promoter activity (concentration (uM unless unit written): 10000, treatment time: 24 h): 131 ± 18
- L1 promoter activity (concentration (uM unless unit written): 20000, treatment time: 6 h): 115 ± 9.1

Compound: CC(=O)Oc1ccccc1C(=O)O [Acetylsalicylic acid]
- L1 promoter activity (concentration (uM unless unit written): 1, treatment time: 6 h): 103 ± 7.2
- L1 promoter activity (concentration (uM unless unit written): 1, treatment time: 24 h): 98.7 ± 9.5
- L1 promoter activity (concentration (uM unless unit written): 3, treatment time: 6 h): 115 ± 11
- L1 promoter activity (concentration (uM unless unit written): 3, treatment time: 24 h): 88.3 ± 11
- L1 promoter activity [12]: 107 ± 3.8
- L1 promoter activity [13]: 105 ± 9.7
- L1 promoter activity [2]: 106 ± 8.5
- L1 promoter activity [3]: 98.2 ± 29
- L1 promoter activity [4]: 123 ± 23
- L1 promoter activity [10]: 112 ± 13
- L1 promoter activity [11]: 105 ± 8.4
- L1 promoter activity [6]: 114 ± 14
- L1 promoter activity [7]: 86 ± 5.1
- L1 promoter activity (concentration (uM unless unit written): 1000, treatment time: 6 h): 107 ± 12
- L1 promoter activity (concentration (uM unless unit written): 1000, treatment time: 24 h): 91.3 ± 6
- L1 promoter activity (concentration (uM unless unit written): 2000, treatment time: 6 h): 95.4 ± 8
- L1 promoter activity (concentration (uM unless unit written): 2000, treatment time: 24 h): 67.7 ± 5.9
- L1 promoter activity (concentration (uM unless unit written): 3000, treatment time: 6 h): 105 ± 4
- L1 promoter activity (concentration (uM unless unit written): 3000, treatment time: 24 h): 53.3 ± 2.5
- L1 promoter activity (concentration (uM unless unit written): 5000, treatment time: 6 h): 111 ± 15
- L1 promoter activity (concentration (uM unless unit written): 5000, treatment time: 24 h): 40.8 ± 1.2
